Measured values: ChEMBL document CHEMBL3301361, “Experimental in vitro DMPK and physicochemical data on a set of publicly disclosed compounds”
≈ marks a conversion by molar mass, not a printed value. Non-standard residues stand in square brackets, D forms with d. Residues, ends and D or L forms follow the SMILES beside them. Dip = N[C@H](C(=O)O)C(c1ccccc1)c1ccccc1; Chg = N[C@H](C(=O)O)C1CCCCC1; NMeA = CN[C@@H](C)C(=O)O

Tests used:
[1] = in vitro; conditions: human, liver microsomes
[2] = in vitro; conditions: human, plasma
[3] = physchem; conditions: octan-1-ol/water
[4] = physchem; conditions: pH 7.4 buffer

| SMILES | fraction unbound at 5 h ([2]; PPB) | logD ([3]; pH 7.4, LogD7.4) | further results |
| --- | --- | --- | --- |
| CCCCc1nc2c(N)nc3ccccc3c2n1CC(C)(C)O | – | – | microsomal CLint [1]: < 3 µL/min/mg |
| O=c1cc(-c2ccccc2)ccn1-c1ccc2c(cnn2CCN2CCCC2)c1 | 0.17 | 1.6 | – |
| Cc1[nH]c(/C=C2\C(=O)Nc3ccc(F)cc32)c(C)c1C(=O)NCCN(C)C | 0.173 | 1.75 | – |
| COc1cc(OC)c2nc(C)c3c(c2c1)N(c1ccc(O)cc1)CC3 | 0.112 | 1.5 | – |
| Cc1cc(Nc2nc(N[C@@H](C)c3ncc(F)cn3)ncc2F)n[nH]1 | 0.471 | 1.79 | – |
| Cc1cc(Nc2nc(N[C@@H](C)c3ncc(F)cn3)ncc2C)n[nH]1 | 0.28 | 1.75 | – |
| Cc1ccc(CO)cc1N(C)c1ccnc(Nc2cc(N3CCCOCC3)cc(N3CCOCC3)c2)n1 | 0.0556 | 3.3 | solubility thermodynamic [4]: 91.2 µM (≈ 46 µg/mL) |
| O=C(O)COc1ccc(Br)cc1-c1ccccc1 | – | – | microsomal CLint [1]: < 3 µL/min/mg |
| Cc1c(Sc2ccc(Cl)cc2)c2cccc(Cl)c2n1CC(=O)O | – | – | microsomal CLint [1]: < 3 µL/min/mg |
| Cc1c(Sc2ccc(Cl)cc2)c2c(-c3ccccc3)cccc2n1CC(=O)O | – | – | microsomal CLint [1]: < 3 µL/min/mg |
| COc1ccc(Sc2c(C)n(CC(=O)O)c3ccc(C)cc23)cc1 | – | – | microsomal CLint [1]: < 3 µL/min/mg |
| CN[C@@H](C)C(=O)N[C@H](C(=O)N[C@H]1CCCN(CCc2ccccc2)C1)C1CCCCC1 | 0.329 | 1.65 | – |
| CN[C@@H](C)C(=O)N[C@H](C(=O)N[C@H]1CCN(Cc2ccccc2)C1)C1CCCCC1 | 0.511 | 1.49 | – |
| CN[C@@H](C)C(=O)N[C@H](C(=O)N[C@H]1CCN(CCc2ccccc2)C1)C1CCCCC1 | 0.443 | 1.65 | – |
| CN[C@@H](C)C(=O)N[C@H](C(=O)N[C@H]1CCCN(C(=O)Cc2ccccc2)C1)C1CCCCC1 | 0.376 | 1.32 | – |
| CN[C@@H](C)C(=O)N[C@H](C(=O)N[C@H]1CCCN(CCc2ccccc2)C1)C(C)(C)C | 0.506 | 1.46 | – |
| CN[C@@H](C)C(=O)N[C@H](C(=O)N[C@H]1CCCN(CCc2ccccc2OC)C1)C(C)(C)C | 0.258 | 1.61 | – |
| CN[C@@H](C)C(=O)N[C@H](C(=O)N[C@H]1CCCN(CCc2ccc([N+](=O)[O-])cc2)C1)C(C)(C)C | 0.262 | 1.54 | – |
| COc1cc(OC)c(S(=O)(=O)N(c2ccccc2)C(C)C)cc1NC(C)=O | 0.005 | 1.6 | – |
| COc1ccc([C@]2(O)CC[C@H](N3CC[C@@H](NC(=O)CNC(=O)c4cccc(C(F)(F)F)c4)C3)CC2)cn1 | 0.212 | 1.72 | – |
| Cn1ncc2c(=O)[nH]c(-c3ccccc3)nc21 | 0.0676 | 1.61 | – |
| COc1ccc(-c2nc3c(OCC4CCNCC4)c(Br)cnc3[nH]2)cc1 | 0.134 | 1.55 | – |
| Cc1ccc(NC(=O)c2ccc(C#N)cc2)cc1-n1cnc2ccc(N3CCN(C)CC3)cc2c1=O | 0.319 | 2.73 | solubility thermodynamic [4]: 32.4 µM (≈ 15.5 µg/mL) |
| Cc1ccc(NC(=O)c2ccno2)cc1-n1cnc2ccc(N3CCN(C)CC3)cc2c1=O | – | – | microsomal CLint [1]: < 3 µL/min/mg |
| Cc1ccc(NC(=O)c2cscn2)cc1-n1cnc2ccc(N3CCN(C)CC3)cc2c1=O | – | – | microsomal CLint [1]: < 3 µL/min/mg |

| SMILES | fraction unbound at 5 h ([2]; PPB) | logD ([3]; pH 7.4, LogD7.4) | further results |
| --- | --- | --- | --- |
| CC(C)Cn1c(=O)n(C)c(=O)c2c(C(=O)N3CC[C@@H](O)C3)c(Cc3c[nH]c4ncccc34)sc21 | 0.314 | 1.71 | – |
| Cc1nc(Cl)c(Cl)n1Cc1sc2c(c1C(=O)N1CC[C@@H](O)C1)c(=O)n(C)c(=O)n2CC(C)C | 0.089 | 1.61 | – |
| CC(=O)Nc1ccc2ccn(-c3cc(NCCCN(C)C)n4ncc(C#N)c4n3)c2c1 | 0.101 | 1.62 | – |
| Cc1ccc(CCNC(=O)c2ccc3sc(CO)nc3c2)cc1 | 0.0293 | – | solubility thermodynamic [4]: 16.2 µM (≈ 5.29 µg/mL) |
| N#Cc1cccc(C[C@@H](C(=O)O)N2CCC(CN3CCC(Oc4ccc(Cl)c(Cl)c4)CC3)CC2)c1 | – | – | microsomal CLint [1]: < 3 µL/min/mg |
| Cc1c(CC(=O)O)c2cc(F)ccc2n1Cc1nc2ccccc2s1 | – | – | microsomal CLint [1]: < 3 µL/min/mg |
| CC(C)Cn1c(=O)n(C)c(=O)c2c(C(=O)N3CC[C@@H](O)C3)c(Cc3ccnc4ccc(F)cc34)sc21 | 0.46 | 1.95 | solubility thermodynamic [4]: 871 µM (≈ 445 µg/mL) |
| COCC[C@H](Oc1ncnc2c1cnn2-c1ccccc1Cl)C(=O)Nc1ccc(C)cn1 | 0.0457 | 3.6 | solubility thermodynamic [4]: 100 µM (≈ 45.3 µg/mL) |
| Cc1c(Cl)ccc(OC2CCN(C[C@H](O)CNC(=O)c3c[nH]c(=O)c4ccc(S(C)(=O)=O)cc34)CC2)c1Cl | – | – | microsomal CLint [1]: < 3 µL/min/mg |
| CS(=O)(=O)c1ccc2c(C(=O)NC[C@@H](O)CN3CCC(Oc4ccc(C#N)c(Cl)c4)CC3)c[nH]c(=O)c2c1 | 0.319 | 1.41 | – |
| Cc1cn([C@H]2CCCN(S(=O)(=O)c3ccc(O)c(Oc4ccccc4)c3)C2)c(=O)[nH]c1=O | 0.062 | 1.49 | – |
| Cc1cn([C@H]2CCCN(S(=O)(=O)c3ccc(O)c(Oc4cccc(F)c4)c3)C2)c(=O)[nH]c1=O | 0.0457 | 1.6 | – |
| O=C(NO)C1COC(c2ccc(F)c(C(F)(F)F)c2)=N1 (stereo not drawn) | 0.0836 | 1.53 | – |
| CCc1nc2c(N)nc3ccccc3c2n1CC(C)(C)O | – | – | microsomal CLint [1]: < 3 µL/min/mg |
| COc1ccc(NC(=O)c2ccnc(N)n2)cc1 | 0.289 | 1.72 | – |
| Cc1nc(CSc2nc(N[C@H](C)CO)c3sc(=O)[nH]c3n2)cs1 | 0.0086 | 1.73 | – |
| CNc1nc2ccccc2n1Cc1sc2c(c1C(=O)N1CC[C@@H](O)C1)c(=O)n(C)c(=O)n2CC(C)C | 0.319 | 1.61 | – |
| C[C@H](CO)Nc1nc(SCc2cccc(F)c2F)nc2nc(NS(C)(=O)=O)sc12 | 0.0114 | 0.92 | solubility thermodynamic [4]: 832 µM (≈ 384 µg/mL) |
| CCC(=O)N1CCN(C(=O)c2cc(Cc3n[nH]c(=O)c4ccccc34)ccc2F)CC1 | 0.371 | 1.22 | solubility thermodynamic [4]: 251 µM (≈ 106 µg/mL) |
| NC(=O)Nc1sc(-c2ccc(CN3CCCCC3)cc2)cc1C(N)=O | 0.334 | 1.75 | – |
| c1ccc2c(c1)CCN(c1ccncc1)C2 | 0.431 | 1.4 | – |
| O=C(CC12CC3CC(CC(C3)C1)C2)Nc1cccc2nc(NCCNCCO)ccc12 | 0.0457 | 1.79 | – |
| Cc1cc(Nc2nc(N[C@@H](C)c3ccc(F)cn3)cnc2C)[nH]n1 | 0.16 | 1.73 | – |
| CN[C@@H](C)C(=O)N[C@H](C(=O)N1CCC[C@H]1C(=O)N[C@H](C(=O)OC)C(c1ccccc1)c1ccccc1)C1CCCCC1 (H-[NMeA][Chg]P[Dip]-OMe) | 0.176 | 2.42 | – |
| CC(C(=O)O)c1ccc2oc(-c3ccc(Cl)cc3)nc2c1 (stereo not drawn) [BENOXAPROFEN] | 0.0024 | 1.3 | – |

| SMILES | fraction unbound at 5 h ([2]; PPB) | logD ([3]; pH 7.4, LogD7.4) | further results |
| --- | --- | --- | --- |
| Cc1c(N)cccc1Cn1ccc(OCCc2cccs2)cc1=O [CG-400549] | 0.0499 | 2.78 | – |
| CNC1=Nc2ccc(Cl)cc2C(c2ccccc2)=[N+]([O-])C1 [CHLORDIAZEPOXIDE] | – | – | fraction unbound at 5 h [2]: 0.0229; logD ([3]; pH 7.4): 2.41 |
| CN(C)CCCN1c2ccccc2CCc2ccc(Cl)cc21 [CLOMIPRAMINE] | 0.0374 | 3.36 | – |
| CCc1nc2c(N)nc3ccccc3c2n1CCCCNS(C)(=O)=O [CPG-52852] | 0.334 | 1.24 | solubility thermodynamic [4]: 537 µM (≈ 194 µg/mL) |
| O=C(NO)C1(CS(=O)(=O)c2ccc(Oc3ccc(Cl)cc3)cc2)CCOCC1 [CTS-1027] | 0.02 | – | solubility thermodynamic [4]: 126 µM (≈ 53.6 µg/mL) |
| CC(C)N(CCC(C(N)=O)(c1ccccc1)c1ccccn1)C(C)C (stereo not drawn) [DISOPYRAMIDE] | – | – | fraction unbound at 5 h [2]: 0.666; logD ([3]; pH 7.4): -0.54 |
| C[C@]12N[C@H](Cc3ccccc31)c1ccccc12 [DIZOCILPINE] | – | – | fraction unbound at 5 h [2]: 0.529; logD ([3]; pH 7.4): 1.6 |
| CS(=O)(=O)c1ccc([C@@H](O)[C@@H](CF)NC(=O)C(Cl)Cl)cc1 [FLORFENICOL] | – | – | fraction unbound at 5 h [2]: 0.676; logD ([3]; pH 7.4): 0.44 |
| CCOC(=O)c1ncn2c1CN(C)C(=O)c1cc(F)ccc1-2 [FLUMAZENIL] | – | – | fraction unbound at 5 h [2]: 0.443; logD ([3]; pH 7.4): 1.1 |
| O=C1OC2(c3ccc(O)cc3Oc3cc(O)ccc32)c2ccccc21 [FLUORESCEIN] | 0.19 | 0 | – |
| COC(=O)[C@H]1[C@@H](c2ccc(I)cc2)C[C@@H]2CC[C@H]1N2CCCF [IOFLUPANE] | – | – | fraction unbound at 5 h [2]: 0.201; logD ([3]; pH 7.4): 2.3 |
| Nc1nc(Nc2ccc(S(N)(=O)=O)cc2)nn1C(=O)c1c(F)cccc1F [JNJ-7706621] | 0.19 | 1.87 | – |
| CC(=O)N1CCN(c2ccc(OCC3COC(Cn4ccnc4)(c4ccc(Cl)cc4Cl)O3)cc2)CC1 (stereo not drawn) [KETOCONAZOLE] | – | – | fraction unbound at 5 h [2]: 0.028; solubility thermodynamic [4]: 6.2 µM (≈ 3.29 µg/mL) |
| Cc1c(OCC(F)(F)F)ccnc1C[S+]([O-])c1nc2ccccc2[nH]1 (stereo not drawn) [LANSOPRAZOLE] | – | – | fraction unbound at 5 h [2]: 0.016; logD ([3]; pH 7.4): 2.7 |
| COc1c2occc2cc2ccc(=O)oc12 [METHOXSALEN] | 0.0768 | 1.97 | – |
| CC(C)(C(=O)c1cccnc1)c1cccnc1 [METYRAPONE] | 0.888 | 1.45 | – |
| Clc1ccc(C(c2ccccc2)N2CCNCC2)cc1 (stereo not drawn) [NORCHLORCYCLIZINE] | 0.0581 | 1.94 | – |
| C1CCC(C(CC2CCCCN2)C2CCCCC2)CC1 (stereo not drawn) [PERHEXILINE] | 0.0156 | 3.02 | – |
| CN(C)CCCN1c2ccccc2Sc2ccccc21 [PROMAZINE] | 0.101 | 2.56 | – |
| CN(CCOc1ccc(CC2SC(=O)NC2=O)cc1)c1ccccn1 (stereo not drawn) [ROSIGLITAZONE] | 0.0026 | 2.5 | solubility thermodynamic [4]: 28.2 µM (≈ 10.1 µg/mL) |
| CCN(CC)CCNC(=O)c1c(C)[nH]c(/C=C2\C(=O)Nc3ccc(Cl)cc32)c1C [SU-11652] | 0.105 | 2.75 | – |
| COc1cc2nc(N3CCN(C(=O)C4CCCO4)CC3)nc(N)c2cc1OC (stereo not drawn) [TERAZOSIN] | 0.204 | 0.9 | – |
| COc1ccc(C(CN(C)C)C2(O)CCCCC2)cc1 (stereo not drawn) [VENLAFAXINE] | – | – | fraction unbound at 5 h [2]: 0.814; logD ([3]; pH 7.4): 0.99 |
